One series addresses T1, NMDA receptors (Rattus norvegicus, UniProt P35439).
T1 construct: Patch clamp recordings were made from these neurones; endogenous in cells; host or cells: primary cultured hippocampal neurones from rat embryos (E20 to E21)
The experiment in a line: Patch clamp, NMDA-induced currents in hippocampal neurones. The series is classed as cell-based.

The next series has as its target T2, NR1a/2A receptors (Homo sapiens, UniProt Q05586+Q12879).
T2 construct: expressed in transfected cells; host or cells: Xenopus laevis oocytes injected with subunit RNA
The series is described as follows: NMDA receptor blockade in Xenopus oocytes, two-electrode voltage clamp. The class given is cell-based. To be noted: Xenopus oocytes expressing NR1a/2A. The protocol: Mature female Xenopus laevis were anaesthetized in 0.2% Tricaine on ice for 15 min prior to surgery. Oocytes were removed and incubated in 2 mg/ml collagenase (type II) in Ca^2+-free oocyte Ringer solution (82.5 mM NaCl, 2 mM KCl, 2 mM MgCl2, 5 mM HEPES, pH 7.5) for 30 min. at room temperature and washed thoroughly with OR-2 (100 mM NaCl, 2 mM KCl, 1 mM MgCl2, 2 mM CaCl2, 5 mM HEPES, pH 7.5). The remaining follicle cell layer was removed manually with fine forceps and the oocytes were kept in OR-2. The RNA was dissolved in DEPC-treated, sterile distilled water. RNA for the NMDA NR1a subunit was mixed 1:1 with RNA for the NR2A subunit. Likewise neuronal nicotinic α4 RNA was mixed 1:1 with RNA for the β2 subunit. […]
Only results from stable cells were accepted for inclusion in the final analysis i.e. showing at least 50% recovery of responses to NMDA following removal of the antagonist tested. […] All antagonists were assessed at steady-state blockade with 6 to 7 concentrations on at least 4 cells. […]
Kinetic experiments were performed by applying various concentrations of unsaturated amino-alkyl-cyclohexanes (normally 5 in a log 3 dosing regime) for 10-20 seconds in the continuous presence of glutamate (100 μM and glycine 10 μM) for 90-180 seconds in Xenopus oocytes expressing NR1a/2A receptors. […] Voltage-dependency was then determined by comparing the glutamate and glutamate plus antagonist curves. […]
A general note: In two-electrode clamp one electrode senses voltage and the other passes current.

The test system of series [1] is maximal electroshock (MES) tonic convulsions. The series is described as follows: Maximal electroshock (MES) test, anticonvulsive activity. The class given is in vivo, mice. The following applies: Mus musculus, ip; NMR female mice, i.p. 30 min before convulsions; read-out: MES ED50. The protocol: (§1) NMR female mice (18-28 g) housed 5 per cage were used for the maximal electroshock (MES) and motor impairment tests. All animals were kept with water and food ad libitum under a 12 hour light-dark cycle (light on at 6 a.m.) and at a controlled temperature (20±0.5C). All experiments were performed between 10 a.m. and 5 p.m. Tested agents were injected 30 min. i.p. before the induction of convulsions if not stated otherwise (see below). All compounds were dissolved in 0.9% saline.
(§2) The MES test was performed together with tests for myorelaxant action (traction reflex) and motor coordination (rotarod). For the traction reflex test mice were placed with their forepaws on a horizontal rod and were required to place all 4 paws on the wire within 10 seconds. To test ataxia (motor coordination) mice were placed on an accelerating rotarod and were required to remain on the rod for 1 minute. […] These tests were followed by MES (100 Hz, 0.5 second shock duration, 50 mA shock intensity, 0.9 ms impulse duration, Ugo Basile) applied through corneal electrodes. The presence of tonic convulsions was scored (tonic extension of hind paws with minimum angle to the body of 90). The aim was to obtain ED50s for all parameters scored (anticonvulsive activity and motor side effects) with use of the Litchfield Wilcoxon test for quantal dose responses. Division of the ED50 for side effects (ataxia or myorelaxation) by the ED50 for antagonism of electroshock convulsions was used as a therapeutic index (TI).
(§3) 4-7 doses of antagonists were tested in each of the in vivo tests (5-8 animals per dose) to allow calculation of graded ED50s according to probit analysis (Litchfield and Wilcoxon) with correction for 0% to 100% effects. ED50s are presented with 95% confidence limits (Cl). Pearson product moment correlation analysis (Sigma Stat, Jandel Scientific) was used to compare in vitro potencies and in vivo anticonvulsant activity.
Background: In the maximal electroshock model the usual endpoint is tonic extension of the hind limbs.

The nature of series [2]: Traction reflex test, myorelaxant action. The series is classed as in vivo, mice. The following applies: mouse, in vivo, ip; NMR female mice, i.p., traction reflex; read-out: Myorelaxation ED50. The protocol: as §1, §2, §3
In series [3] the test system is myorelaxation (traction reflex). The series is described as follows: Traction reflex test, myorelaxant action. The series is classed as in vivo, mice. To be noted: ED50 myorelaxation divided by ED50 MES. As to the method: as §1, §2, §3
The nature of series [4]: Accelerating rotarod test, ataxia (motor coordination). The following applies: mouse, in vivo, ip; NMR female mice, accelerating rotarod. The class given is in vivo, mice. The protocol:
as §1, §2, §3
(In general: The rotarod test checks motor coordination on a turning rod.)

The next series deals with ataxia (rotarod). Described as above. The series is classed as in vivo, mice. To be noted: ED50 ataxia divided by ED50 MES. As to the method:
as §1, §2, §3

Series [5] concerns the target NMDA receptor ([3H]-(+)-MK-801 site) (Rattus norvegicus, UniProt P35439). The series is described as follows: [3H]-(+)-MK-801 receptor binding, rat cortex membranes.

T2 sequence (Q12879 23-1464, other chains not shown): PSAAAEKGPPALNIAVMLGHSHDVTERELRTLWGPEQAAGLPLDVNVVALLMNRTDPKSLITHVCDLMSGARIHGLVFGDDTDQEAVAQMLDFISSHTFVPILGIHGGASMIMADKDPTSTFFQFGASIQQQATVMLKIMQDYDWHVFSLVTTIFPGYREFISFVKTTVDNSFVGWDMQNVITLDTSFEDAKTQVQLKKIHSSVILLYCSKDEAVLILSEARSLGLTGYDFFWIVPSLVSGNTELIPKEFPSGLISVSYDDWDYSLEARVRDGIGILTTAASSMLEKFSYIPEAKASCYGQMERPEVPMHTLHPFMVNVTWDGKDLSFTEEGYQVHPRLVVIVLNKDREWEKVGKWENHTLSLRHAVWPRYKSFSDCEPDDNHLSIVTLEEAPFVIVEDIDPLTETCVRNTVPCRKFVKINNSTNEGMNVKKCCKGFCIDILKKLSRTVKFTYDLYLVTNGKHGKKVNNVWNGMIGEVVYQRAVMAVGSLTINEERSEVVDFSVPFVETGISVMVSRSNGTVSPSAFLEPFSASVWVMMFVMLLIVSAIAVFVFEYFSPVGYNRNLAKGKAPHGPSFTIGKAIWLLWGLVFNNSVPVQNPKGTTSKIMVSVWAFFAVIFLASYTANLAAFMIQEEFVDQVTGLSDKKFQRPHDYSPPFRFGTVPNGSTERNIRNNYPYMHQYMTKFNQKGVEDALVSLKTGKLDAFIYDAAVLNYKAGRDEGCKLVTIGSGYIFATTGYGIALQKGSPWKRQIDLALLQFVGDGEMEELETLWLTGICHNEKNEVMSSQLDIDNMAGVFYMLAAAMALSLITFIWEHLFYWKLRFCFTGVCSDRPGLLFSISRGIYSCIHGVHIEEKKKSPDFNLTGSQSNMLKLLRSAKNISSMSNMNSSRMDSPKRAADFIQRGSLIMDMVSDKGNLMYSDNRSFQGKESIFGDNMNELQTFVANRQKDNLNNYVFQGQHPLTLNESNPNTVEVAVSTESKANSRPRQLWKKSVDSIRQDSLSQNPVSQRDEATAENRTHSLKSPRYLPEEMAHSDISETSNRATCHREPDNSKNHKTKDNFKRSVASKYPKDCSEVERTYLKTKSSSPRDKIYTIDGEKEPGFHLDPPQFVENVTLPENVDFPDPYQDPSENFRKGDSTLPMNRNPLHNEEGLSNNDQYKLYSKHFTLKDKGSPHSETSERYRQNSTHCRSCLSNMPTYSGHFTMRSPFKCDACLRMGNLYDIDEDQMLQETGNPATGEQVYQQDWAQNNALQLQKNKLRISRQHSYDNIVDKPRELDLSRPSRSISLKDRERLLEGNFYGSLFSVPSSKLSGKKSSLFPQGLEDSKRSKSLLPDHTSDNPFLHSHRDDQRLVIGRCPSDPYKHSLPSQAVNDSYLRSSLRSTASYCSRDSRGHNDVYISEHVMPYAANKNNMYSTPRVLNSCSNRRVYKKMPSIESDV

For orientation: IC50 means the concentration at which inhibition is half-maximal. One may read the ED50 as the dose at which the effect has come halfway, by size or by number of responders. For orientation: Ki means the equilibrium dissociation constant of an inhibitor or competing ligand from its target. Low readings indicate higher affinity, high ones lower affinity. `C=CC1(N)CC(C)(C)CC(C)(C)C1` [MRZ 2/759, 1-Ethenyl-3,3,5,5-tetramethylcyclohexylamine]: the IC50 on NMDA receptors (Table 1, mean, N=6, read-out: NMDA IC50) is 3280 nM; against NR1a/2A receptors (glutamate 100 μM, glycine 10 μM, -70 mV), 1990 nM. Further, the “use- and voltage-dependency of blockade” value on NMDA receptors (hippocampal neurones, NMDA-induced currents) is “clear use- and voltage-dependency”. Besides, the “Steady-state inward current responses to NMDA” value on NMDA receptors (hippocampal neurones, NMDA 200 μM with glycine 1 μM at -70 mV) was “antagonized”. The Hill at NR1a/2A receptors (logistic fit of the concentration-blockade curve) is listed as 0.75. The ED50 in series [1] was determined as 14.8 mg/kg. The ED50 at 30 min worked out at 12.8 mg/kg in series [2] and 15 mg/kg in series [4]. Further, the “Therapeutic index (myorelaxation ED50 / MES ED50)” value in series [3] amounted to 0.9. Also, in the series on ataxia (rotarod), the “Therapeutic index (ataxia ED50 / MES ED50)” value worked out at 1.0. In series [5], the Ki turned out to be 1180 nM.

The values above are taken from patent US6828462B2, “Unsaturated 1-amino-alkylcyclohexane NMDA, 5HT3, and neuronal nicotinic receptor antagonists” (Merz Pharma GmbH & Co. KGAA, priority 2001, dated 2004).
